Blank lines part the entries; values can stand above or below the molecule they belong to.
Legend:
[1] = target: T1, KIAA1033 WASH complex subunit 7 (Homo sapiens, UniProt Q2M389); assay: competitive isoTOP-ABPP; type: binding; conditions: for R value (DMSO/fragment) for probe 1 labeling: Q2M389_K302; for R value (DMSO/fragment) for probe 1 labeling / isoTOP-ABPP reactivity ratio at lysine Q2M389_K302 / isoTOP-ABPP ratio (R) at liganded lysine Q2M389_K302: 50 uM, in vitro; for R value (DMSO/fragment) for probe 1 labeling / isoTOP-ABPP reactivity ratio at lysine Q2M389_K302: 231 sol; for isoTOP-ABPP ratio (R) at liganded lysine Q2M389_K302: sol, 231
T1 construct: isoTOP-ABPP experiments performed in cell lysates (in vitro); endogenous in cells; host or cells: soluble proteome of human cancer cell lines (MDA-MB-231; Ramos and Jurkat also prepared)
T1 sequence (Q2M389 1-1173): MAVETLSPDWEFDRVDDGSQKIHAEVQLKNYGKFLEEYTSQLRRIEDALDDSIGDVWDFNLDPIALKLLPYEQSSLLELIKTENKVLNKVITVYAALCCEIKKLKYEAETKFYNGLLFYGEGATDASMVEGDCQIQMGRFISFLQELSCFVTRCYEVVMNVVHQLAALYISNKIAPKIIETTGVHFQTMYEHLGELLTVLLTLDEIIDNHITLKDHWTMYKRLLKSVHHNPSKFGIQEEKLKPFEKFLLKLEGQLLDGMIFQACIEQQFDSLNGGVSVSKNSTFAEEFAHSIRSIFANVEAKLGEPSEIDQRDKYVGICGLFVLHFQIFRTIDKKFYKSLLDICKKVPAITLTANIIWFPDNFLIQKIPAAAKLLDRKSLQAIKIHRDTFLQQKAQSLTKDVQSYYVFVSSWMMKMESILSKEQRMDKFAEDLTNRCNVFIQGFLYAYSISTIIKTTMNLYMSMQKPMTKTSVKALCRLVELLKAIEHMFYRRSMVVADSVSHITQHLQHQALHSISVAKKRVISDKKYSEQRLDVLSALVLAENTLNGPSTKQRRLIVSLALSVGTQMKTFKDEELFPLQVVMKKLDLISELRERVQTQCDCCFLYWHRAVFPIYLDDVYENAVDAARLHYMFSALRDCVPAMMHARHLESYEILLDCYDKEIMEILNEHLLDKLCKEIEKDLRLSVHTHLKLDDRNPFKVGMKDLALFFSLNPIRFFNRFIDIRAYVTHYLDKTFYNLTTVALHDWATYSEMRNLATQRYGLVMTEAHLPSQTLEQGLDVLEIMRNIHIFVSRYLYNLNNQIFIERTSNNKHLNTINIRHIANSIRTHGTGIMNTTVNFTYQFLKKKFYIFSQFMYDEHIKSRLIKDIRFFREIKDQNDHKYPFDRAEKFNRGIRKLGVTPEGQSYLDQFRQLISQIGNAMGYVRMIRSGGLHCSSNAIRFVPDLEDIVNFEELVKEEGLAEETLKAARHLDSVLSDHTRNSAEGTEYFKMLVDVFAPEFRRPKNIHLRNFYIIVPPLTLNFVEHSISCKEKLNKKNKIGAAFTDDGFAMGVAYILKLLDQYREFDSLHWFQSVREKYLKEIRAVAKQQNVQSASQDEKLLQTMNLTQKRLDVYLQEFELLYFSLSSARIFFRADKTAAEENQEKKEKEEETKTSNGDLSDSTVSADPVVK
Method in brief: (§1)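 Probe: STP-alkyne, 0.1 mM, 1 h RT, after fragment pretreatment of lysate (esters 50 μM; guanidinylators 100 μM). Tags: light = compound, heavy = DMSO, via CuAAC. Replicates averaged if SD <60% of mean; otherwise lowest ratio used when any R <4.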

[2] = target: T2, CDK2 Cyclin-dependent kinase 2 (Homo sapiens, UniProt P24941); assay: competitive isoTOP-ABPP; type: binding; conditions: for R value (DMSO/fragment) for probe 1 labeling: P24941_K33; for R value (DMSO/fragment) for probe 1 labeling / isoTOP-ABPP reactivity ratio at lysine P24941_K33 / isoTOP-ABPP ratio (R) at liganded lysine P24941_K33: 50 uM, in vitro; for R value (DMSO/fragment) for probe 1 labeling / isoTOP-ABPP reactivity ratio at lysine P24941_K33: 231 sol; for isoTOP-ABPP ratio (R) at liganded lysine P24941_K33: sol, 231
T2 construct: isoTOP-ABPP experiments performed in cell lysates (in vitro); endogenous in cells; host or cells: soluble proteome of human cancer cell lines (MDA-MB-231; Ramos and Jurkat also prepared)
Method in brief: as §1

R value (DMSO/fragment) for probe 1 labeling [1]: 0.8
SMILES: O=C(CCc1cn(-c2ccccc2)nc1-c1ccccc1)Oc1c(F)c(F)c(F)c(F)c1F [fragment 19, Pentafluorophenyl 3-(1,3-diphenyl-1H-pyrazol-4-yl)propanoate]

R value (DMSO/fragment) for probe 1 labeling [2]: 0.9 | R value (DMSO/fragment) for probe 1 labeling [1]: 0.9
SMILES: O=C(Oc1c(F)c(F)c(F)c(F)c1F)C(c1ccccc1)c1ccccc1 [fragment 20, Pentafluorophenyl 2,2-diphenylacetate]

R value (DMSO/fragment) for probe 1 labeling [2]: 1.0
SMILES: O=C(Oc1c(F)c(F)c(F)c(F)c1F)c1cc(C(F)(F)F)cc(C(F)(F)F)c1 [fragment 21, Pentafluorophenyl 3,5-bis(trifluoromethyl)benzoate]

R value (DMSO/fragment) for probe 1 labeling [2]: 1.5 | R value (DMSO/fragment) for probe 1 labeling [1]: 3.6
SMILES: Cn1cc(CC(=O)Oc2c(F)c(F)c(F)c(F)c2F)c2ccccc21 [fragment 22, Pentafluorophenyl 2-(1-methyl-1H-indol-3-yl)acetate]

R value (DMSO/fragment) for probe 1 labeling [1]: 1.5
SMILES: COc1cc(CCC(=O)Oc2c(F)c(F)c(F)c(F)c2F)cc(OC)c1OC [fragment 23, Pentafluorophenyl 3-(3,4,5-trimethoxyphenyl)propanoate]

isoTOP-ABPP reactivity ratio at lysine Q2M389_K302 [1]: 1.0
SMILES: O=C(Oc1c(F)c(F)c(F)c(F)c1F)C1CCN(C(=O)OCc2ccccc2)CC1 [fragment 24, 1-Benzyl 4-(pentafluorophenyl) piperidine-1,4-dicarboxylate]

isoTOP-ABPP reactivity ratio at lysine Q2M389_K302 [1]: 1.8
SMILES: O=C(CCc1coc2cc(F)ccc2c1=O)Oc1c(F)c(F)c(F)c(F)c1F [fragment 26, Pentafluorophenyl 3-(7-fluoro-4-oxo-4H-chromen-3-yl)propanoate]

SMILES: O=C(CCc1cn(-c2ccccc2)nc1-c1ccccc1)Oc1ccc([N+](=O)[O-])cc1[N+](=O)[O-] [fragment 29, 2,4-Dinitrophenyl 3-(1,3-diphenyl-1H-pyrazol-4-yl)propanoate]
isoTOP-ABPP reactivity ratio at lysine P24941_K33 [2]: 0.9 | isoTOP-ABPP reactivity ratio at lysine Q2M389_K302 [1]: 1.1

SMILES: O=C(Oc1ccc([N+](=O)[O-])cc1[N+](=O)[O-])C(c1ccccc1)c1ccccc1 [fragment 30, 2,4-Dinitrophenyl 2,2-diphenylacetate]
isoTOP-ABPP reactivity ratio at lysine Q2M389_K302 [1]: 1.6

SMILES: COc1cc(CCC(=O)Oc2ccc([N+](=O)[O-])cc2[N+](=O)[O-])cc(OC)c1OC [fragment 33, 2,4-Dinitrophenyl 3-(3,4,5-trimethoxyphenyl)propanoate]
isoTOP-ABPP reactivity ratio at lysine P24941_K33 [2]: 0.7 | isoTOP-ABPP reactivity ratio at lysine Q2M389_K302 [1]: 0.9

SMILES: O=C(Oc1ccc([N+](=O)[O-])cc1[N+](=O)[O-])C1CCN(C(=O)OCc2ccccc2)CC1 [fragment 34, 1-Benzyl 4-(2,4-dinitrophenyl) piperidine-1,4-dicarboxylate]
isoTOP-ABPP ratio (R) at liganded lysine P24941_K33 [2]: 1.0

SMILES: O=C(Oc1ccc([N+](=O)[O-])cc1[N+](=O)[O-])c1ccc2ccccc2n1 [fragment 35, 2,4-Dinitrophenyl quinoline-2-carboxylate]
isoTOP-ABPP ratio (R) at liganded lysine P24941_K33 [2]: 1.6 | isoTOP-ABPP ratio (R) at liganded lysine Q2M389_K302 [1]: 1.4

SMILES: O=C(CCc1coc2cc(F)ccc2c1=O)Oc1ccc([N+](=O)[O-])cc1[N+](=O)[O-] [fragment 36, 2,4-Dinitrophenyl 3-(7-fluoro-4-oxo-4H-chromen-3-yl)propanoate]
isoTOP-ABPP ratio (R) at liganded lysine Q2M389_K302 [1]: 1.2

SMILES: O=C(Oc1ccc([N+](=O)[O-])cc1[N+](=O)[O-])c1ccc(-c2ccccc2)cc1 [fragment 37, 2,4-Dinitrophenyl [1,1′-biphenyl]-4-carboxylate]
isoTOP-ABPP ratio (R) at liganded lysine P24941_K33 [2]: 0.9 | isoTOP-ABPP ratio (R) at liganded lysine Q2M389_K302 [1]: 0.9

SMILES: O=C(CC12CC3CC(CC(C3)C1)C2)Oc1ccc([N+](=O)[O-])cc1[N+](=O)[O-] [fragment 38, 2,4-Dinitrophenyl 2-(adamantan-1-yl)acetate]
isoTOP-ABPP ratio (R) at liganded lysine P24941_K33 [2]: 0.9

SMILES: O=C(Oc1ccc([N+](=O)[O-])cc1[N+](=O)[O-])c1ccc(Oc2ccccc2)cc1 [fragment 39, 2,4-Dinitrophenyl 4-phenoxybenzoate]
isoTOP-ABPP ratio (R) at liganded lysine P24941_K33 [2]: 1.0 | isoTOP-ABPP ratio (R) at liganded lysine Q2M389_K302 [1]: 1.2

SMILES: O=C(Oc1ccc([N+](=O)[O-])cc1[N+](=O)[O-])c1ccccc1Nc1cccc(C(F)(F)F)c1 [fragment 40, 2,4-Dinitrophenyl 2-((3-(trifluoromethyl)phenyl)amino)benzoate]
isoTOP-ABPP ratio (R) at liganded lysine P24941_K33 [2]: 1.0 | isoTOP-ABPP ratio (R) at liganded lysine Q2M389_K302 [1]: 0.9

SMILES: CC(C)(C)OC(=O)NCCCC(=O)Oc1ccc([N+](=O)[O-])cc1[N+](=O)[O-] [fragment 41, 2,4-Dinitrophenyl 4-((tert-butoxycarbonyl)amino)butanoate]
isoTOP-ABPP ratio (R) at liganded lysine P24941_K33 [2]: 1.0 | isoTOP-ABPP ratio (R) at liganded lysine Q2M389_K302 [1]: 1.5

SMILES: O=C(Oc1ccc([N+](=O)[O-])cc1[N+](=O)[O-])C(c1ccccc1)(c1ccccc1)c1ccccc1 [fragment 42, 2,4-Dinitrophenyl 2,2,2-triphenylacetate]
isoTOP-ABPP ratio (R) at liganded lysine P24941_K33 [2]: 0.9

SMILES: N#Cc1ccc(C(=O)Oc2ccc([N+](=O)[O-])cc2[N+](=O)[O-])cc1 [fragment 44, 2,4-Dinitrophenyl 4-cyanobenzoate]
isoTOP-ABPP ratio, lysine P24941_K33 ([2]; 50 uM_231_sol_in vitro): 1.1 | isoTOP-ABPP ratio, lysine Q2M389_K302 ([1]; 50 uM_231_sol_in vitro): 1.3

SMILES: O=C(CCc1ccc2c(c1)OCO2)Oc1ccc([N+](=O)[O-])cc1[N+](=O)[O-] [fragment 45, 2,4-Dinitrophenyl 3-(benzo[d][1,3]dioxol-5-yl)propanoate]
isoTOP-ABPP ratio, lysine P24941_K33 ([2]; 50 uM_231_sol_in vitro): 4.6 | isoTOP-ABPP ratio, lysine Q2M389_K302 ([1]; 50 uM_231_sol_in vitro): 1.2

SMILES: O=C(ON1C(=O)CCC1=O)c1cc(C(F)(F)F)cc(C(F)(F)F)c1 [fragment 46, 3,5-Bis(trifluoromethyl)benzoic acid NHS ester]
isoTOP-ABPP ratio, lysine P24941_K33 ([2]; 50 uM_231_sol_in vitro): 0.9

isoTOP-ABPP ratio, lysine P24941_K33 ([2]; 100 uM_231_sol_in vitro): 2.3 | isoTOP-ABPP ratio, lysine Q2M389_K302 ([1]; 100 uM_231_sol_in vitro): 5.3
SMILES: CC(C)(C)OC(=O)N=C(NC(=O)OC(C)(C)C)n1cccn1 [fragment 50, reference compound]

isoTOP-ABPP ratio, lysine Q2M389_K302 ([1]; 50 uM_231_sol_in vitro): 1.5
SMILES: NC(=O)c1cc(C(F)(F)F)cc(C(F)(F)F)c1 [fragment 51, reference compound]
